IC50 data for six compounds are collected here from ChEMBL document CHEMBL3886271, “Method for selectively inhibiting ACAT1 in the treatment of alzheimer's disease” (2015).

For this assay, the target named is T1, Sterol O-acyltransferase 2 (Homo sapiens, UniProt O75908).
T1 sequence (O75908 whole entry): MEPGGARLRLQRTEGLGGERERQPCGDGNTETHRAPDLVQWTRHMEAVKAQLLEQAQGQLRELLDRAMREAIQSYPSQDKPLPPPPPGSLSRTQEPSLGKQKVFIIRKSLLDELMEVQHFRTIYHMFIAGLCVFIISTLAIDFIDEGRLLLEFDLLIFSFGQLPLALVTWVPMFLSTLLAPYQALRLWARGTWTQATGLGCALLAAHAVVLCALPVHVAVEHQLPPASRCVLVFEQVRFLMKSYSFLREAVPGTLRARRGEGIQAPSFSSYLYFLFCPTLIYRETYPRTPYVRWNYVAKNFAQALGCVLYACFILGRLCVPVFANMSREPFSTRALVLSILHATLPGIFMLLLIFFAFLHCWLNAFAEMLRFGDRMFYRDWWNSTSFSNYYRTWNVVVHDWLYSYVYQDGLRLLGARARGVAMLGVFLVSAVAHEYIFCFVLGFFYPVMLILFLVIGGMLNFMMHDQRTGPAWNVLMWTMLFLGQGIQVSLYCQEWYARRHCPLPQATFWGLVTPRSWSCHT
The experiment in a line: Inhibition Assay: Methods for assessing the selectively of ACAT1 inhibitors are known in the art and can be based upon any conventional assay including, but not limited to the determination of the half maximal (50%) inhibitory concentration (IC) of a substance (i.e., 50% IC, or IC50), the binding affinity of the inhibitor (i.e., Ki), and/or the half maximal effective concentration (EC50) of the inhibitor for ACAT1 as compared to ACAT2. See, e.g., Lada, et al. (2004) J. Lipid Res. 45:378-386 and U.S. Pat. No. 5,968,749. ACAT1 and ACAT2 proteins that can be employed in such assays are well-known in the art and set forth, e.g., in GENBANK Accession Nos. NP-000010 (human ACAT1) and NP-005882 (human ACAT2). See also U.S. Pat. No. 5,834,283.
In general, IC50 refers to the concentration needed to halve the response being measured. High values mean a need for much substance, low ones inhibition by little substance. `CC(C)c1cccc(C(C)C)c1NC(=O)CC(=O)C(Cc1ccccc1)Cc1ccc(OC(=O)CCCCCCN2CCCCCC2=O)cc1` (stereo unspecified) registered a half-maximal inhibitory concentration (IC50) of 0.53 µM.

`CC(C)c1cccc(C(C)C)c1NC(=O)CC(=O)C(Cc1ccccc1)Cc1ccc(O)cc1` (stereo unspecified) gave an IC50 of 1.5 µM.

`CCCCCCCC(=O)CNc1cc(-c2ccccc2)nn1-c1ccccc1` yielded an IC50 of 53 µM.

Regarding `CCCCCCCCCCNc1cc(-c2ccccc2)nn1-c1ccccc1`, the IC50 came to 97 µM.

The compound `CCCCCCCCC(=O)CNc1cc(-c2ccccc2)nn1-c1ccccc1` showed a half-maximal inhibitory concentration (IC50) of 75 µM.

As to `CCCC[C@H](C)[C@@H]1CC(=O)N[C@@H](Cc2ccccc2)C(=O)N[C@@H](C)C(=O)N[C@H](CC(C)C)C(=O)O1` [BEAUVERIOLIDE I], the IC50 amounted to 20 µM.
